Several values for one entry are separate records, joined by “and”; a condition that tells them apart may be missing. Identical values can stand only once. Like-named read-outs stand apart in the source and are kept apart here.
What was measured:
[1] = system: E. coli MG1655 LolA; design: method as in PMID 23473681; details: read-out: IC50 against E. coli MG1655 LolA; cited from earlier work
[2] = system: E. coli MC4100; test: Antimicrobial activity test (growth, OD600); assay type: cell-based; details: for IC50: Escherichia coli, MC4100, 20 h, 37 °C, OD600, read-out: Bacterial Viability IC50, E. coli MC4100
[3] = system: PhoA secretion in E. coli strain BL21 (pLysS); test: Luminescence-based HTS assay of in vivo PhoA secretion; assay type: cell-based; details: for IC50: Escherichia coli, BL21, luminescence-based HTS assay, E. coli BL21, read-out: Inhibition of PhoA Secretion IC50, HTS
[4] = system: E. coli; details: cited from earlier work
[5] = system: E. coli BL21; test: Antimicrobial activity test (growth, OD600); assay type: cell-based; details: for IC50: Escherichia coli, BL21, BL21, 20 h, 37 °C, OD600, read-out: Bacterial Viability IC50, E. coli BL21
[6] = system: B. subtilis ATCC6633; test: Antimicrobial activity test (growth, OD600); assay type: cell-based; details: for IC50: Bacillus subtilis, ATCC6633, 20 h, 37 °C, OD600, read-out: Bacterial Viability IC50, B. subtilis ATCC6633
[7] = system: E. coli strains; test: Antimicrobial activity test, E. coli strains (strain not given with the value); assay type: cell-based; details: for IC50: strain not given, read-out: Growth inhibition IC50, E. coli strains
[8] = system: PhoA secretion in E. coli MC4100; test: microbe, parasite or virus in culture; assay type: cell-based; details: for IC50: Escherichia coli, PNPP colorimetric lab-scale assay, read-out: Inhibition of PhoA Secretion IC50, Lab-Scale
[9] = system: Gram-positive bacteria; test: Antimicrobial activity test, summary over Gram-positive bacteria; assay type: cell-based; details: most Gram-positive bacteria
[10] = system: E. coli BW25113; test: Antimicrobial activity test (growth, OD600); assay type: cell-based; details: Escherichia coli, 20 h, 37 °C, read-out: Bacterial Viability IC50, E. coli BW25113
[11] = Turbidimetric kinetic aqueous solubility assay; assay type: physicochemical; details: pH 7, aqueous buffer, kinetic from dmso stock, turbidimetry 570 nm, PBS pH 7–7.2, 0.5% DMSO, 1 h; read-out: Aqueous Solubility (soluble at)
Experimental: The determination of the aqueous solubility of compounds in this assay is based on the principle of turbidimetry. Turbidimetric methods rely on the measurement of light scattering from precipitate in solution to determine the solubility. Precipitation is identified by an absorbance increase due to blockage of the light by the particles at the wavelength of 570 nm. Compounds, stored in matrix vials (Thermo Fisher) at a stock concentration of 30 mM or 10 mM in 100% Dimethyl sulfoxide (DMSO), were used to make a serial dilution (dose-response) in a 96-well v-bottom propylene plate (Greiner, 651201). Serial dilutions are made to perform the solubility assay; they were made row-wise and start with undiluted compound (30 mM or 10 mM) in the first well and were then 1 over 3 diluted further on. The serial dilutions were eight doses long and contain six compounds per plate maximal (rows B-G). Columns 1 and 12 were filled with 100% DMSO for control purposes. The dose-response plates were 200-times diluted in 300 µL Phosphate Buffered Saline (PBS; pH = 7–7.2 without Ca^2+/Mg^2+) (Gibco, 14190-144) by transferring 1.5 µL of serially diluted compound. […] Dilutions were made by diluting one 96-well plate in two 96-well, flat-bottom, polystyrene plates (Greiner, 655101). These plates were then incubated at room temperature for 1h. After 1h incubation, the plates were read on the envision (Perkin Elmer) at 570 nm.
The data of this assay is reported as “Soluble at” value for each compound. This “soluble at” value represents the concentration where the compound is still soluble and is the concentration before the first precipitated concentration. The first precipitated concentration is the concentration where the absorbance value is more than five standard deviations higher than the average background absorbance. The average background absorbance and the standard deviation are calculated on the 0.5% DMSO controls in columns 1 and 12.

[12] = system: HEK293T cells; details: human, 24 h
Experimental: Hek293T cells were harvested and diluted obtaining a cell suspension with a concentration of 200,000 cells/mL in complete growth medium (DMEM, 4.5 g/L d-glucose, pyruvate 1 mM, 0.075% bicarbonate and 10% Fetal Bovine serum). Of this cell suspension, 50 µL (10,000/well) was seeded in a 384 well culture plate (white polystyrene, tissue culture treated) and incubated at 37 °C-5% CO2 for 4 h in a moisturized incubator, which enables the cells to adhere. After the incubation, small chemical compounds were diluted in medium and 10 µL of a compound solution was added onto the cells, ending up with the required compound concentration. The cells were incubated for 24 h at 37 °C-5% CO2 in a moisturized incubator where after × µL medium was removed to equalize the liquid levels within one plate ending up with ±25 µL/well. The amount of remaining cells/well was determined with ATPlite^TM 1step (Perkin Elmer) Adenosine TriPhosphate (ATP) monitoring system, which is based on firefly luciferase.
The cytotoxicity was calculated by subtracting RLU (relative light units) obtained from the cells incubated with a compound from the RLUs obtained from cells in the presence of the vehicle.
The cytotoxic effect of a test compound was determined as:
Percent cell death = [1−((RLU determined for sample with test compound present—1) divided by (RLU determined in the presence of vehicle—1))] * 100.

[13] = system: PhoA secretion in BW25113ΔtolC; test: Lab-scale p-nitrophenyl PhoA secretion assay, ΔtolC strain; assay type: cell-based, E. coli
[14] = system: PhoA secretion in E. coli BW25113; test: Lab-scale p-nitrophenyl PhoA secretion assay, BW25113; assay type: cell-based; details: Escherichia coli, read-out: PhoA secretion in vivo IC50, E. coli BW25113
[15] = system: E. coli BW25113::imp-2413+; test: Antimicrobial activity test (growth, OD600); details: Escherichia coli, BW25113, read-out: Viability IC50, BW25113::imp-2413+
[16] = system: Gram-negative and Gram-positive bacteria; test: Antimicrobial activity test, summary over Gram-negative and Gram-positive bacteria; assay type: cell-based; details: 19 Gram-negative and Gram-positive species evaluated
[17] = system: E. coli BW25113ΔtolC; test: Antimicrobial activity test (growth, OD600); details: for IC50: Escherichia coli, read-out: Viability IC50, BW25113ΔtolC, E. coli strain missing TolC; for Higher sensitivity of ΔtolC and imp-2413+ derivatives compared to BW25113: viability, Figure 5A
[18] = system: Staphylococcus aureus ATC6538P; test: Antimicrobial activity test (growth, OD600); assay type: cell-based; details: read-out: Bacterial Viability (IC50)
[19] = Escherichia coli, read-out: Inhibition of PhoA Secretion IC50, Lab-Scale (ΔtolC strain), BW25113ΔtolC, p-nitrophenyl assay
[20] = E. coli BL21, MC4100 or BW25113
[21] = Escherichia coli, BW25113, BL21, E. coli BL21, MC4100 or BW25113
[22] = Staphylococcus aureus, ATC6538P

Row | SMILES | IC50 [2] | IC50 [3] | IC50 [10] | IC50 [5] | IC50 [6] | solubility at 1 h [11] | Toxicity of Mammalian Cells (HEK293T) LD50 [12] | IC50 [13, 19] | IC50 [8] | IC50 [14] | other results
1 | N=C(N)SCc1ccc(Cl)c(Cl)c1 [A22, S-(3,4-dichlorobenzyl)isothiourea] |  |  |  |  |  |  |  |  |  |  | IC50 [1]: 200 µM
2 | [N-]=[N+]=[N-].[Na+] [CC#01, Sodium azide, reference compound] |  |  |  |  |  |  |  |  |  |  | Bacterial Viability, E. coli MC4100 (value indicates MIC not IC50) ([2]; NaN3 control): 4 mM; Inhibition of secreted phosphatase activity ([3]; HTS assay conditions, sodium azide 4 mM positive control): > 90%; Antibacterial concentration for E. coli [4]: 3 to 4.6 mM; Bacterial Viability, E. coli BL21 (value indicates MIC not IC50) ([5]; NaN3 control): 4 mM; Bacterial Viability, B. subtilis ATCC6633 (value indicates MIC not IC50) ([6]; NaN3 control): >100 mM; Growth inhibition of E. coli ([7]; at 4 mM): ~ 80%; Level of secreted PhoA remaining ([8]; sodium azide, Figure 2A, assay format not stated): ~ 17%; Concentration required for any observable inhibition of Gram-positive bacteria [9]: > 100 mM
3 | CN(C)c1c(C(=O)O)cnc2ccccc12 [HSI#07] | > 100 µM | 19 µM | > 100 µM | > 100 µM | > 100 µM | 150 µM and 32.4 µg/mL | 60.2 µM | 19.9 µM | 26.4 µM | 19 µM | 
4 | O=C(O)c1cnc2ccc(Cl)cc2c1O [HSI#12] | > 100 µM | 11.5 µM | 39.7 µM | 60 µM | > 100 µM | 50 µM and 11.8 µg/mL | 60.2 µM | 26 µM | 11.2 µM | 19 µM | IC50 [15]: 41.4 µM; Antibacterial character [16]: bacteriocidal; IC50 [7, 20]: < 65 µM and > 45 µM; IC50 [7, 21]: 44 to 65 µM; IC50 [17]: 23.3 µM; Higher sensitivity of ΔtolC and imp-2413+ derivatives compared to BW25113 [17]: 2 to 40 times
5 | O=C(O)c1cnc2cc(Cl)ccc2c1O [HSI#14] | > 100 µM | 13.4 µM | 31.3 µM | > 100 µM | > 100 µM | 150 µM and 33.5 µg/mL | 60.2 µM | 11.5 µM | 14.6 µM | 13.5 µM | IC50 [15]: 36.2 µM; Antibacterial character [16]: bacteriocidal; IC50 [7, 20]: < 65 µM and > 45 µM; IC50 [7, 21]: 44 to 65 µM; IC50 ([13]; read-out: Inhibition of PhoA Secretion IC50, Lab-Scale (ΔtolC strain), BW25113ΔtolC, p-nitrophenyl assay): 11.5 µM; IC50 [17]: 17.2 µM; Higher sensitivity of ΔtolC and imp-2413+ derivatives compared to BW25113 [17]: 2 to 40 times
6 | N=C(N)SCc1ccc(Cl)cc1 [S-(4-chlorobenzyl)isothiourea] |  |  |  |  |  |  |  |  |  |  | IC50 [1]: 150 µM
7 | CC1(C)S[C@@H]2[C@H](NC(=O)[C@H](N)c3ccccc3)C(=O)N2[C@H]1C(=O)O [ampicillin, reference compound] |  |  |  |  |  |  |  |  |  |  | IC50 ([18]; Staphylococcus aureus ATC6538P): 10 nM
8 | CC1(C)S[C@@H]2[C@H](NC(=O)Cc3ccccc3)C(=O)N2[C@H]1C(=O)O [penicillin G, reference compound] |  |  |  |  |  |  |  |  |  |  | IC50 [18, 22]: 500 nM
9 | CN[C@H](CC(C)C)C(=O)N[C@H]1C(=O)N[C@@H](CC(N)=O)C(=O)N[C@H]2C(=O)N[C@H]3C(=O)N[C@H](C(=O)N[C@H](C(=O)O)c4cc(O)cc(O)c4-c4cc3ccc4O)[C@H](O)c3ccc(c(Cl)c3)Oc3cc2cc(c3O[C@@H]2O[C@H](CO)[C@@H](O)[C@H](O)[C@H]2O[C@H]2C[C@](C)(N)[C@H](O)[C@H](C)O2)Oc2ccc(cc2Cl)[C@H]1O [vancomycin, reference compound] |  |  |  |  |  |  |  |  |  |  | IC50 [18, 22]: 17000 nM

From article PMC8000395, “Effective Small Molecule Antibacterials from a Novel Anti-Protein Secretion Screen” (Microorganisms, 2021)
